# According to patent US20120295321A1, “Pentose Transporters and Uses Thereof” (Universiteit Utrecht Holding B.V., priority 2009, published 2012):
# Like-named read-outs stand apart in the source and are kept apart here.
# B1: Aspergillus niger pentose transporter protein An03g02190 (2190), FIG. 8A (Aspergillus niger CBS 513.88) (protein)
# chain: MPRKRPQDELNGDVLQQEAQATGPNDQKSEEGIVDTPIPLLTWRSFLMGIFVSMGGFLFGYDTGQISGFLEMPNFLQRYGQQQADGTYYFSNARSGLIVALLSIGTLIGALIAAPIADRVGRKWSISGWSAMVCVGITIQISSPFGKWYQVAMGRWVAGLGVGALSLLVPMYQAETGPRHIRGSLVSTYQLFITLGIFVANCINFGTEARNDTGSWRIPMGITYIWAMILGFGIALFPESARYDYRHGREAKAARTLSRMYGIPENHRMLKLEIGEIRQKFVEEQERGEITWSHLLHAPRMKYRVAVGVALQALQQLTGANYFFYYGTTIFRGAGISNSYVTQMILGGVNFGTTFLGLYLIENYGRRRSLITGALWMFVCFMVFASVGHFSLDHENPERTHTAGVVMVVFACLFILGFASTWGPMVWTIIAELYPSEFRARAMSLATASNWLWNFLLAFFTPFITSAIDFRLGYVFAGCLFLAAGLVYVAVIEGRGRTLEEIDTMYVMKVPPWKSSKYVFPDIDPYDRRGSILSKAGASHIPQVSGGNETLSPHTTEV
# Legend:
# [1] = system: Aspergillus niger pentose transporter protein An03g01620 (1620), FIG. 3A; assay: zero trans-influx sugar transport assay (14C-labelled pentose uptake, transporter expressed in S. cerevisiae); format: biochemical
# From the text: (§1) Cells were kept on ice until required.
# [2] = system: S. cerevisiae strain expressing the 0560 (An06g00560) transporter; assay: toxic effect of pentose on yeast growth, strain expressing 0560 transporter; format: cell-based, Saccharomyces cerevisiae; details: 50 mM maltose, YNB + 2% agar + 0.5 mM CuSO4; also: key: ++++: very good growth; +++: good growth; ++: poor growth; +: very poor growth; +/−: growth barely visible; −: no growth
# Protocol: (§2) Yeast strain EB.VW4000 was grown on YP [1% (w/v) Bacto yeast extract/2% (w/v) Bacto peptone]with 2% (w/v) maltose at 30° C. (ref strain). Other S. cerevisiae strains used were derived from strain EB.VW4000, and were transformed with plasmids based on pYEX-BX (Clontech). Plasmid transformations of yeast cells were carried out according to the quick and easy TRAFO protocol [TRAFO reference]. Yeast strains were grown at 30° C. in a rotary shaker at 250 rev./min, in YNB[0.67% (w/v) Difco yeast nitrogen base] supplemented with 0.1% (w/v) casamino acids and 0.2 mg/l tryptophan, 20 mg/l leucine, 20 mg/l histidine, 122 mg/l uridine. The carbon sources used were as stated in the text. Unless stated otherwise, 0.5 mM CuSO4 was used to induce expression from the CUP1 promoter.
# (§3) Yeast strains provided with an exemplary novel pentose transporter were studied with respect to the effect of growth in the presence of pentose sugars.
# [3] = system: S. cerevisiae strain expressing the 1100 (An11g01100) transporter; assay: toxic effect of pentose on yeast growth, strain expressing 1100 transporter; format: cell-based, Saccharomyces cerevisiae; details: 50 mM maltose, YNB + 2% agar + 0.5 mM CuSO4; also: key: ++++: very good growth; +++: good growth; ++: poor growth; +: very poor growth; +/−: growth barely visible; −: no growth
# Protocol: as §2, §3
# [4] = system: Aspergillus niger pentose transporter protein An06g00560 (0560), FIG. 1A; assay: zero trans-influx sugar transport assay (14C-labelled pentose uptake, transporter expressed in S. cerevisiae); format: biochemical; details: read-out: Km for L-arabinose, 5 s, 30° C., pH 6.5
# From the text: as §1
# [5] = system: Aspergillus niger pentose transporter protein An08g01720 (1720), FIG. 4A; assay: as above; format: biochemical
# From the text: as §1
# [6] = substrate: OC1OC[C@@H](O)[C@H](O)[C@H]1O; assay: cells, lysate or membranes; details: other: zero trans-influx, 5 s, 30° C., pH 6.5
# [7] = substrate: OC1OC[C@H](O)[C@H](O)[C@H]1O; assay: cells, lysate or membranes; details: other: zero trans-influx, 5 s, 30° C., pH 6.5
Molecule,"Km ([1]; read-out: Km for D-xylose, 5 s, 30° C., pH 6.5)",growth ([2]; 25 mM pentose),growth ([2]; 50 mM pentose),growth ([2]; 100 mM pentose),growth ([2]; 500 mM pentose),growth ([3]; 25 mM pentose),growth ([3]; 50 mM pentose),growth ([3]; 100 mM pentose),growth ([3]; 500 mM pentose),"Km ([1]; read-out: Km for L-arabinose, 5 s, 30° C., pH 6.5)",Km [4],higher affinity for L-arabinose than An06g00560 ([5]; Km 4.9 mM compared to 75 mM),"Km ([5]; read-out: Km for L-arabinose, zero trans-influx, 5 s, 30° C., pH 6.5)",Km [6],Km [7]
OC1OC[C@@H](O)[C@H](O)[C@H]1O (stereo partly drawn) [D-xylose],23 mM,+++,++,++,++,++,+,+,+,,,,,,
OC1OC[C@H](O)[C@H](O)[C@H]1O (stereo partly drawn) [L-arabinose],,+,+/−,+/−,−,+++,++,+,+/−,7.5 mM,75 mM,approximately 15 fold,4.9 mM,,
B1,,,,,,,,,,,,,,9 mM mM,2.6 mM mM
